pIC50: −log10 of the molar value. Calls of active or inactive are those of the source. The rule behind the calls is not given here.
Columns and labels:
[1] = Induction of apoptosis in rat HSC-T6 cells assessed as early apoptotic cells at 40 nM pretreated with TGFbeta-1 for 1 day followed by compound addition and measured after 24 hrs by flow cytometry (reference value: 0.17 %); type: functional
HepG2 = assay: Antiproliferative activity against human HepG2 cells treated for 72 hrs by MTT assay; type: functional, cell-based; settings: HepG2, 72 h
SK-HEP1 [2] = assay: Antiproliferative activity against human SK-HEP1 cells treated for 72 hrs by MTT assay; type: functional, cell-based; settings: SK-HEP1, 72 h
HCCLM9 = assay: Antiproliferative activity against human HCCLM9 cells treated for 72 hrs by MTT assay; type: functional, cell-based; settings: HCCLM9, 72 h
SK-HEP1 [3] = assay: Antiproliferative activity against human SK-Hep1 cells assessed as inhibition of cell viability by MTT assay; type: functional, cell-based; settings: time 24-72 hrs, TDE = time-dependent effect
SK-HEP1 [4] = assay: Antiproliferative activity against human SK-Hep1 cells assessed as inhibition of cell viability treated for 24 to 72 hrs by MTT assay; type: functional, cell-based; settings: time 24-72 hrs, DDE = dose-dependent effect
Huh-7 [5] = assay: Induction of cell cycle arrest in human Huh-7 cells assessed as accumulation at G2 phase at 80 nM treated for 24 hrs by PI staining based flow cytometry (reference value: 15.90 %); type: functional
Huh-7 [6] = assay: Induction of cell cycle arrest in human Huh-7 cells assessed as accumulation at G2 phase at 10 nM treated for 24 hrs by PI staining based flow cytometry (reference value: 15.90 %); type: functional
SK-HEP1 [7] = assay: Induction of cell cycle arrest in human SK-Hep1 cells assessed as accumulation at G2 phase at 80 nM treated for 24 hrs by PI staining based flow cytometry (reference value: 16.55 %); type: functional
SK-HEP1 [8] = assay: Induction of cell cycle arrest in human SK-Hep1 cells assessed as accumulation at S phase at 10 nM treated for 24 hrs by PI staining based flow cytometry (reference value: 24.98 %); type: functional
Huh-7 [9] = assay: Induction of apoptosis in human Huh-7 cells assessed as change in cell membrane permeability by measuring blue fluorescence incubated for 24 hrs by Hoechst staining based microscopy; type: functional; settings: dose 12-60 nM, DDE = dose-dependent effect
Huh-7 [10] = assay: Induction of apoptosis in human Huh-7 cells assessed as cell shrinkage incubated for 24 hrs by Giemsa staining based microscopy; type: functional; settings: dose 12-60 nM, DDE = dose-dependent effect
Huh-7 [11] = assay: Induction of apoptosis in human Huh-7 cells assessed as chromatin agglutination incubated for 24 hrs by Giemsa staining based microscopy; type: functional, cell-based; settings: dose 12-60 nM, DDE = dose-dependent effect
Huh-7 [12] = assay: Induction of apoptosis in human Huh-7 cells assessed as cytoskeleton disintegration incubated for 24 hrs by Giemsa staining based microscopy; type: functional, cell-based; settings: dose 12-60 nM, DDE = dose-dependent effect
SK-HEP1 [13] = assay: Induction of apoptosis in human SK-Hep1 cells assessed as chromatin agglutination incubated for 24 hrs by Giemsa staining based microscopy; type: functional, cell-based; settings: dose 12-60 nM, DDE = dose-dependent effect
SK-HEP1 [14] = assay: Induction of apoptosis in human SK-Hep1 cells assessed as cytoskeleton disintegration incubated for 24 hrs by Giemsa staining based microscopy; type: functional, cell-based; settings: dose 12-60 nM, DDE = dose-dependent effect
Huh-7 [15] = assay: Induction of apoptosis in human Huh-7 cells assessed as viable cells at 10 nM incubated for 24 hrs by annexin V-FITC/PI staining flow cytometry (reference value: 97.3 %); type: functional; settings: read-out: Activity
Huh-7 [16] = assay: Induction of apoptosis in human Huh-7 cells assessed as late apoptotic cells at 10 nM incubated for 24 hrs by annexin V-FITC/PI staining flow cytometry (reference value: 1.33 %); type: functional
Huh-7 [17] = assay: Induction of apoptosis in human Huh-7 cells assessed as early apoptotic cells at 40 nM incubated for 24 hrs by annexin V-FITC/PI staining flow cytometry (reference value: 0.33 %); type: functional
Huh-7 [18] = assay: Induction of apoptosis in human Huh-7 cells assessed as early apoptotic cells at 80 nM incubated for 24 hrs by annexin V-FITC/PI staining flow cytometry (reference value: 0.33 %); type: functional
Huh-7 [19] = assay: Induction of apoptosis in human Huh-7 cells assessed as necrotic cells at 80 nM incubated for 24 hrs by annexin V-FITC/PI staining flow cytometry (reference value: 1.08 %); type: functional
SK-HEP1 [20] = assay: Induction of apoptosis in human SK-Hep1 cells assessed as viable cells at 10 nM incubated for 24 hrs by annexin V-FITC/PI staining flow cytometry (reference value: 97.8 %); type: functional; settings: read-out: Activity
SK-HEP1 [21] = assay: Induction of apoptosis in human SK-Hep1 cells assessed as necrotic cells at 10 nM incubated for 24 hrs by annexin V-FITC/PI staining flow cytometry (reference value: 0.73 %); type: functional
SK-HEP1 [22] = assay: Induction of apoptosis in human SK-Hep1 cells assessed as late apoptotic cells at 80 nM incubated for 24 hrs by annexin V-FITC/PI staining flow cytometry (reference value: 1.13 %); type: functional
SK-HEP1 [23] = assay: Induction of mitochondrial membrane potential changes in human SK-Hep1 cells assessed as decrease in TMRE positive cells incubated for 24 hrs by TMRE staining based flow cytometry; type: functional, cell-based; settings: dose 10-80 nM, DDE = dose-dependent effect
Huh-7 [24] = assay: Inhibition of cell migration in human Huh-7 cells incubated for 24 hrs by scratch wound healing assay; type: functional, cell-based; settings: dose 3-18 nM, DDE = dose-dependent effect
SK-HEP1 [25] = assay: Inhibition of cell migration in human SK-HEP1 cells incubated for 24 hrs by scratch wound healing assay; type: functional, cell-based; settings: dose 3-18 nM, DDE = dose-dependent effect
Huh-7 [26] = assay: Inhibition of cell migration in human Huh-7 cells at 3 to 18 nM incubated for 24 hrs by crystal violet staining based transwell assay; type: functional; settings: dose 3-18 nM
HSC-T6 = assay: Antiproliferative activity against TGF-beta-1-stimulated rat HSC-T6 cells assessed as suppression of cell proliferation at 0.70 to 60 uM preincubated with TGFbeta-1 for 1 day followed by compound addition and measured after 48 hrs; type: functional, cell-based; settings: dose 0.7-60 µM
[27] = Induction of apoptosis in rat HSC-T6 cells assessed as viable cells at 10 nM pretreated with TGFbeta-1 for 1 day followed by compound addition and measured after 24 hrs by flow cytometry (reference value: 97.5 %); type: functional; settings: read-out: Activity
[28] = Induction of apoptosis in rat HSC-T6 cells assessed as late apoptotic cells at 10 nM pretreated with TGFbeta-1 for 1 day followed by compound addition and measured after 24 hrs by flow cytometry (reference value: 1.76 %); type: functional
[29] = Induction of apoptosis in rat HSC-T6 cells assessed as viable cells at 40 nM pretreated with TGFbeta-1 for 1 day followed by compound addition and measured after 24 hrs by flow cytometry (reference value: 97.5 %); type: functional; settings: read-out: Activity
[30] = Induction of apoptosis in rat HSC-T6 cells assessed as early apoptotic cells at 80 nM pretreated with TGFbeta-1 for 1 day followed by compound addition and measured after 24 hrs by flow cytometry (reference value: 0.17 %); type: functional
[31] = Induction of apoptosis in rat HSC-T6 cells assessed as necrotic cells at 80 nM pretreated with TGFbeta-1 for 1 day followed by compound addition and measured after 24 hrs by flow cytometry (reference value: 0.56 %); type: functional

Row | SMILES | Activity [1] | pIC50 (HepG2) | pIC50 (SK-HEP1 [2]) | pIC50 (HCCLM9) | Activity (SK-HEP1 [3]) | Activity (SK-HEP1 [4]) | Activity (Huh-7 [5]) | Activity (Huh-7 [6]) | Activity (SK-HEP1 [7]) | Activity (SK-HEP1 [8]) | Activity (Huh-7 [9]) | Activity (Huh-7 [10]) | Activity (Huh-7 [11]) | Activity (Huh-7 [12]) | Activity (SK-HEP1 [13]) | Activity (SK-HEP1 [14]) | viability at 0.01 µM (Huh-7 [15]) | Activity (Huh-7 [16]) | Activity (Huh-7 [17]) | Activity (Huh-7 [18]) | other results
1 | CC(=O)Oc1ccc2[nH]c3c(c2c1)CCN1C(=O)c2cc(F)cc(F)c2N(c2cccc(F)c2)C31 (stereo not drawn) | 0.32% | 6.74 | 7.22 | 7.00 | Tde | Dde | 74.38% | 13.54% | 76.35% | 19.4% | Dde | Dde | Dde | Dde | Dde | Dde | 93.8% | 4.02% | 1.37% | 1.1% | Activity (Huh-7 [19]): 9.88%; viability at 0.01 µM (SK-HEP1 [20]): 86.7%; Activity (SK-HEP1 [21]): 0.58%; Activity (SK-HEP1 [22]): 19.5%; Activity (SK-HEP1 [23]): Dde; inhibition (Huh-7 [24]): Dde; inhibition (SK-HEP1 [25]): Dde; inhibition (Huh-7 [26]): Active; Activity (HSC-T6): Active; viability at 0.01 µM [27]: 89.9%; Activity [28]: 8.67%; viability at 0.04 µM [29]: 85.6%; Activity [30]: 0.83%; Activity [31]: 4.44%
2 | O=C1c2cc(F)cc(F)c2N(c2cccc(F)c2)C2c3[nH]c4ccc(O)cc4c3CCN12 (stereo not drawn) | 0.14% | 7.05 | 7.15 | 6.96 | Tde | Dde | 78.5% | 26.52% | 83.92% | 18.42% | Dde | Dde | Dde | Dde | Dde | Dde | 93.1% | 4.61% | 2.51% | 1.71% | Activity (Huh-7 [19]): 9.82%; viability at 0.01 µM (SK-HEP1 [20]): 92.9%; Activity (SK-HEP1 [21]): 2.39%; Activity (SK-HEP1 [22]): 15.4%; Activity (SK-HEP1 [23]): Dde; inhibition (Huh-7 [24]): Dde; inhibition (SK-HEP1 [25]): Dde; inhibition (Huh-7 [26]): Active; Activity (HSC-T6): Active; viability at 0.01 µM [27]: 94%; Activity [28]: 5.1%; viability at 0.04 µM [29]: 98.3%; Activity [30]: 0.72%; Activity [31]: 3.62%
